In patent US20100075364A1, “METHOD FOR SELECTING MAMMAL TRANSFORMED CELLS” (FOOD AND DRUG SAFETY CENTER, priority 2008, published 2010):

Assays:
Bhas 42 cells [1] = experiment: Bhas 42 cell transformation test with MCA, hydrogen peroxide method with dye and Giemsa staining; format: cell-based, mouse; details: MCA 0.1, 0.3, 1 μg/mL for 3 days; 0.0015% hydrogen peroxide day 21, alamarBlue or WST-8
Method: A basic experiment was carried out as follows. In a Bhas 42 cell transformation test using a 96-well plate (0.1 mL of medium/well), 0.05 mL of a medium containing hydrogen peroxide (in a concentration 3 times higher than the final concentration) was added on the 21st day after cell inoculation. 1 to 24 hours later, 0.05 mL of a medium containing alamarBlue or WST-8 (0.01 mL of dye+0.04 mL of medium) was added.
Whether or not the transformation of Bhas 42 cells could be quantified with a dye was analyzed using MCA. The cells were inoculated (200 cells/0.05 mL of medium/well), and on the following day, 0.05 mL of a medium containing MCA (0.2, 0.6, and 2 μg/mL: all of which were 2 times higher than the final concentrations that were 0.1, 0.3, and 1 μg/mL, respectively) was added thereto. The cells were treated for 3 days, and a medium containing hydrogen peroxide (0.0045%: 3 times higher than the final concentration that was 0.0015%) was added thereto on the 21st day after cell inoculation. 24 hours later, a dye was added, and measurement was then carried out. Thereafter, 0.02 mL of glutaraldehyde (2.5%: approximately 10 times higher than the final concentration that was 0.25%) was further added, and the resultant cells were then left for 30 minutes or more for fixation. Thereafter, the cells were washed with water and were then subjected to Giemsa staining.

Bhas 42 cells [2] = experiment: Selection of Bhas 42 transformed cells by BP treatment and light irradiation; format: cell-based, mouse; details: BP 20 ng/mL + light irradiation 2 J/cm^2 (UVA), observed 24 hours later
Method: Whether or not transformed cells can be selected using active oxygens other than hydrogen peroxide was analyzed. Since such active oxygens other than hydrogen peroxide are extremely unstable and have a short life time, they cannot be used as reagents. Accordingly, benzo(a)pyrene (BP) for generating superoxide anion radical as a result of light irradiation was utilized. Transformed foci were induced in Bhas 42 cells (by the method of Example 1), and the medium was then exchanged with a phosphate buffered saline (2 mL/well). […] Using a sunlight simulator, light was applied to the cells (300 to 800 nm; UVA irradiation intensity: 5.6 mW/cm^2; irradiation time: 6 minutes; irradiation dose: 2 J/cm^2), and the medium was then exchanged. Twenty-four hours later, the resultant cells were observed.

Bhas 42 cells [3] = details: 0.0015% final, 24 hours
Method: In order to observe the morphology of a transformed focus and the morphology of normal cells existing around the transformed focus before and after a treatment with hydrogen peroxide, the following experiment was carried out using 3-methylcholanthrene (MCA) as an initiator. […] Thereafter, 0.2 mL of a medium containing hydrogen peroxide (0.0165%: 11 times higher than the final concentration that was 0.0015%) was added, and the transformed focus was then observed 24 hours after the addition of hydrogen peroxide.

Bhas 42 cells [4] = details: depending on concentration and treatment time (1 to 24 hours)
Method: 1 to 24 hours later, 0.05 mL of a medium containing alamarBlue or WST-8 (0.01 mL of dye+0.04 mL of medium) was added. Three hours after the addition of the aforementioned medium, a fluorescence level (excitation: 530 nm; measurement: 590 nm) or absorbance (450 nm) was measured (FIG. 2).
In order to find conditions under which normal cells are killed but transformed cells survive, an experiment was carried out to obtain an appropriate concentration of hydrogen peroxide and an appropriate treatment time.

[5] = system: Hu-MI cells and human cancer cells (A549, FLC-5, HCT 116, MKN28); details: 0.003% final, 24 hours, day 14
Method: Whether or not human transformed cells can also be selected by treatment with hydrogen peroxide was analyzed. […] An experimental system was prepared, such that a large number of Hu-MI cells and a small number of human cancer cells (A549 cells: lung cancer; FLC-5 cells: liver cancer; HCT 116 cells: colon cancer; and MKN28 cells: stomach cancer) were simultaneously inoculated and such that they were co-cultured.
The Hu-MI cells (10^4 cells/well) and various types of cancer cells (500 cells/well for FLC-5 cells; and 100 cells/well for other cells) were each inoculated on a 6-well plate (2 mL of medium/well). On the 14th day after the inoculation, 0.2 mL of medium containing hydrogen peroxide (0.033%: 11 times higher than the final concentration that was 0.003%) was added thereto, and the cells were then observed 24 hours after the addition of hydrogen peroxide. As a medium, MEM+10% fetal bovine serum was used.

mouse lung tumor cells = details: 0.015% final, 24 hours, lung tumor slices
Method: Whether or not the transformed cells can be selected even in vivo was analyzed. The following experiment was carried out using rasH2 mice (human c-Ha-ras gene-introduced mice; female; 6-week-old). N-ethyl-N-nitrosourea used as an initiator was intraperitoneally administered to each mouse (120 mg/kg/10 mL of physiological saline). From 1 week after the administration of N-ethyl-N-nirosourea, butylhydroxytoluene used as a promoter was orally administered once a week, repeatedly for 7 weeks (400 mg/kg/10 mL of corn oil). Thereafter, the mouse was further bred for 2 weeks. […] The medium was left at rest in a CO2 incubator (5% CO2, 37° C.) for 24 hours, and the sample was then stained with a trypan blue solution (prepared by adding 0.002% trypan blue to phosphate buffered saline) for 10 minutes. It is to be noted that trypan blue is not incorporated into living cells but is incorporated into dead cells, and that it stains the cells blue.

SMILES: Cc1ccc2cc3c(ccc4ccccc43)c3c2c1CC3 [MCA, 3-methylcholanthrene]
- transformed foci and fluorescence level or absorbance (Bhas 42 cells [1]): increased depending on the dosage

SMILES: c1ccc2c(c1)cc1ccc3cccc4ccc2c1c34 [BP, benzo(a)pyrene]
- selection of the transformed cells (Bhas 42 cells [2]): observed only in the case of a BP treatment+light irradiation group

SMILES: OO [hydrogen peroxide]
- morphology of normal cells around the transformed focus after addition of hydrogen peroxide (Bhas 42 cells [3]; day 21): cytoplasm was denatured
- morphology of the transformed focus after addition of hydrogen peroxide (Bhas 42 cells [3]; day 21, foci induced by 1 μg/mL MCA): not changed
- effect on normal cells versus transformed focus wells, absorbance of WST-8 as indicator (Bhas 42 cells [4]): specifically destroys normal cells
- fate of Hu-MI cells (considered normal cells) [5]: died and were thereby removed
- fate of human cancer cells (A549, FLC-5, HCT 116, MKN28) [5]: remained in the state of colonies and survived
- trypan blue staining (dead cells) of tumor and non-tumor portion (mouse lung tumor cells): only the non-tumor portion was stained blue
